Test results published in patent publication US20250041429A1, “COMPOUND HAVING BTK PROTEIN DEGRADATION ACTIVITY, AND MEDICAL USES THEREOF” (UBIX THERAPEUTICS, INC., priority 2021, published 2025).

Target: T1, BTK protein (Homo sapiens, UniProt Q06187)
T1 construct: endogenous in cells; host or cells: TMD-8 cells
Experiment: Measurement of BTK protein degradation ability in TMD-8 cells (Western blotting)
Format: cell-based
Conditions: harvested after 24 hours; for BTK degradation (%) 1 nM: compound 1 nM; for BTK degradation (%) 10 nM: compound 10 nM; for BTK degradation (%) 100 nM: compound 100 nM
Outline: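 TMD-8 cells (1×10^6/mL) were treated for 24 h with compound at 0.1, 1, 10 μM or 0.0001–0.1 μM, with DMSO as vehicle control. RIPA lysates were normalized by BCA assay. BTK was detected by Western blot with anti-BTK, using GAPDH or β-actin as loading controls, and imaged on LI-COR Odyssey.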

T1 sequence (Q06187 whole entry): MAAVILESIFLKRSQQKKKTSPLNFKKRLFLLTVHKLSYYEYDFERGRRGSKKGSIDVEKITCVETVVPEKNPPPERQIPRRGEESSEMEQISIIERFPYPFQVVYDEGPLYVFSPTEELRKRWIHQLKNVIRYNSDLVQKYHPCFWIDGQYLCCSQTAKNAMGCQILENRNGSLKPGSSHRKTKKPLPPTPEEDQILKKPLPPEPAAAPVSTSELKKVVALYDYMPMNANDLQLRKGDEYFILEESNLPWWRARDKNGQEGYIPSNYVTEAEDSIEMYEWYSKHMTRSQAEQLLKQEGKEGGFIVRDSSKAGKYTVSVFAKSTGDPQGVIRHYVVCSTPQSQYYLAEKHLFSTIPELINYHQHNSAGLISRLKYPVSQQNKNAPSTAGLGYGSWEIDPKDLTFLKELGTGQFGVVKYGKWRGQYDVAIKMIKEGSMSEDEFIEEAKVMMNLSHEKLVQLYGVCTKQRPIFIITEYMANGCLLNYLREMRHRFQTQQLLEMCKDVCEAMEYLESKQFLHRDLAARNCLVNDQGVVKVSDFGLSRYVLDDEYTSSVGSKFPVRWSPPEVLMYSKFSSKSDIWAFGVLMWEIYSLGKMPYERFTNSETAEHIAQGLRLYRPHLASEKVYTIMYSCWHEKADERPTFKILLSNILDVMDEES

Row | Structure (SMILES) | BTK degradation (%) 1 nM [%] | BTK degradation (%) 10 nM [%] | BTK degradation (%) 100 nM [%]
1 | COc1ccc(C(=O)N2CCC(CN3CCN(c4ccc(Nc5nccc(-c6cc(F)cc(NC(=O)N7CC(OC(C)C)C7)c6C)n5)cc4)CC3)CC2)cc1N1CCC(=O)NC1=O [Example 90, N-(3-(2-((4-(4-((1-(3-(2,4-dioxotetrahydropyrimidin-1 (2H)-yl)-4-methoxybenzoyl)piperidin-4-yl)methyl)piperazin-1-yl)phenyl)amino)pyrimidin-4-yl)-5-fluoro-2-methylphenyl)-3-isopropoxyazetidine-1-carboxamide] | 4 | 10 | 37.5
2 | Cc1cc(-c2ccnc(Nc3cnn(C4CCN(CC5CCN(C(=O)c6cccc(NC7CCC(=O)NC7=O)c6)CC5)CC4)c3)n2)ccc1CNC(=O)N1CC(OC(C)C)C1 (stereo not drawn) [Example 91, N-(4-(2-((1-(1-((1-(3-((2,6-dioxopiperidin-3-yl)amino)benzoyl)piperidin-4-yl)methyl)piperidin-4-yl)-1H-pyrazol-4-yl)amino)pyrimidin-4-yl)-2-methylbenzyl)-3-isopropoxyazetidine-1-carboxamide] | 4.5 | 68.5 | 95.0
3 | Cc1cc(-c2ccnc(Nc3cnn(C4CCN(CC5CN(C(=O)c6cccc(NC7CCC(=O)NC7=O)c6)C5)CC4)c3)n2)ccc1CNC(=O)N1CC(OC(C)C)C1 (stereo not drawn) [Example 92, N-(4-(2-((1-(1-((1-(3-((2,6-dioxopiperidin-3-yl)amino)benzoyl)azetidin-3-yl)methyl)piperidin-4-yl)-1H-pyrazol-4-yl)amino)pyrimidin-4-yl)-2-methylbenzyl)-3-isopropoxyazetidine-1-carboxamide] | 7.0 | 33.5 | 89.0

Now from value to compound:

Row | BTK degradation (%) 1 nM [%] | BTK degradation (%) 10 nM [%] | BTK degradation (%) 100 nM [%] | Structure (SMILES)
4 | 62.0 | 94.5 | 98.5 | Cc1cc(-c2ccnc(Nc3ccc(N4CCN(CC5CCN(C(=O)c6cccc(NC7CCC(=O)NC7=O)c6)CC5)CC4)cc3)n2)ccc1CNC(=O)c1cnn(C(C)C)c1 (stereo not drawn) [Example 93, N-(4-(2-((4-(4-((1-(3-((2,6-dioxopiperidin-3-yl)amino)benzoyl)piperidin-4-yl)methyl)piperazin-1-yl)phenyl)amino)pyrimidin-4-yl)-2-methylbenzyl)-1-isopropyl-1H-pyrazole-4-carboxamide]
5 | 59.5 | 93.5 | 98.5 | Cc1cc(-c2ccnc(Nc3ccc(N4CCN(CC5CN(C(=O)c6cccc(NC7CCC(=O)NC7=O)c6)C5)CC4)cc3)n2)ccc1CNC(=O)c1cnn(C(C)C)c1 (stereo not drawn) [Example 94, N-(4-(2-((4-(4-((1-(3-((2,6-dioxopiperidin-3-yl)amino)benzoyl)azetidin-3-yl)methyl)piperazin-1-yl)phenyl)amino)pyrimidin-4-yl)-2-methylbenzyl)-1-isopropyl-1H-pyrazole-4-carboxamide]
6 | 67.5 | 94.5 | 98.0 | Cc1cc(-c2ccnc(Nc3ccc(N4CCN(CC5CCN(C(=O)c6cccc(NC7CCC(=O)NC7=O)c6)CC5)CC4)cc3)n2)ccc1CNC(=O)c1cnn(C(C)(C)C)c1 (stereo not drawn) [Example 95, 1-(tert-butyl)-N-(4-(2-((4-(4-((1-(3-((2,6-dioxopiperidin-3-yl)amino)benzoyl)piperidin-4-yl)methyl)piperazin-1-yl)phenyl)amino)pyrimidin-4-yl)-2-methylbenzyl)-1H-pyrazole-4-carboxamide]
7 | 70.0 | 95.5 | 98.0 | Cc1cc(-c2ccnc(Nc3ccc(N4CCN(CC5CN(C(=O)c6cccc(NC7CCC(=O)NC7=O)c6)C5)CC4)cc3)n2)ccc1CNC(=O)c1cnn(C(C)(C)C)c1 (stereo not drawn) [Example 96, 1-(tert-butyl)-N-(4-(2-((4-(4-((1-(3-((2,6-dioxopiperidin-3-yl)amino)benzoyl)azetidin-3-yl)methyl)piperazin-1-yl)phenyl)amino)pyrimidin-4-yl)-2-methylbenzyl)-1H-pyrazole-4-carboxamide]
